Bridge positions count the residues as written; N and C are the ends. Ends that are not written are not given here.
Assays:
MUC2 = MUC2 (Homo sapiens, UniProt Q02817); assay: Phage display (CX7C library) against MUC2, Sanger sequencing; assay type: binding; details: for % Prevalence: MUC2 phage screening, CX7C library, third round of panning, 16 sequenced candidates
Protocol: (§1) For each mucin of interest, 5 μg of mucin protein was diluted in 150 μL of Tris-buffered saline (TBS) and added to 2 wells of a microtiter plate. The plate was left overnight in a humidified, sealed container with agitation at 50 rpm. After the overnight mucin coating, the solution was poured out, and 300 μL of blocking buffer was added to the wells for 1 h. After the 1 h waiting period, the blocking buffer was poured out, and the wells were washed three times with 300 μL of Tris-buffered saline with TBST (TBS + 0.1% (v/v) Tween-20) to remove nonspecific binding on the mucin layer coating. Next, 5 μL of the C7C library diluted with 95 μL of TBST was added to each blocked well and placed on shaker for 45 min, before pouring out the nonbinding phage and washing the plate ten times with TBST. A 0.2 M glycine-HCl elution buffer (pH 2.2, 100 μL) was added to each well and placed on a shaker for 20 min to release the mucin-layer binding peptides on the plate as unamplified eluate, with the pH neutralized by 30 μL of neutralization buffer (1 M Tris-HCl, pH 9).
E. coli liquid cultures were prepared by adding E. coli cells to 20 mL of LB media and placing them in shaking conditions at 37 °C and 250 rpm for 2 h and 45 min. The unamplified eluate (1 μL of which was saved for titering) was added to the E. coli cultures under the same conditions for 4 h and 45 min for amplification. After amplification, the cultures were centrifuged for 10 min at 12,000 g RCF at 4 °C, and the supernatant was collected and spun again under the same conditions for 5 min. The top 16 mL of supernatant was collected and mixed with 4 mL of PEG/NaCl (20% (w/v) PEG-8000/2.5 M NaCl in water) to promote precipitation of the mucin-binding peptide-containing phage and left overnight.
Titering was performed to measure the amount of phages present in the solution. From the obtained unamplified eluate, 1 μL of unamplified eluate was added to 999 μL of LB solution to obtain a 10³ dilution. […]

MUC5AC = MUC5AC (Homo sapiens, UniProt P98088); assay: Phage display (CX7C library) against MUC5AC, Sanger sequencing; assay type: binding; details: MUC5AC phage screening, third round of panning, 16 sequenced candidates
Protocol: as §1
E. coli liquid cultures were prepared by adding E. coli cells to 20 mL of LB media and placing them in shaking conditions at 37 °C and 250 rpm for 2 h and 45 min. The unamplified eluate (1 μL of which was saved for titering) was added to the E. coli cultures under the same conditions for 4 h and 45 min for amplification. […]

% Prevalence (MUC2) [%]	repeated peptide hits (number of phage candidates) (MUC2; phage display against MUC2, Sanger sequencing)	% Prevalence (MUC5AC) [%]	Sequence
25	4 of 16	–	CAKHRIMLC (disulfide 1-9 (inferred)) [Peptide M2.1, CX7C cyclic peptide hit for MUC2; AF647 conjugated at N-terminus in ex vivo tests]
6.25	–	–	CTDKASSSC (disulfide 1-9 (inferred)) [Peptide M2.2, CX7C cyclic peptide hit for MUC2]
–	–	18.75	CTDKASSSC (disulfide 1-9 (inferred)) [Peptide M5.1, CX7C cyclic peptide hit for MUC5AC]

From paper PMC12020424, “Identification and Validation of Cyclic Peptides with Mucin-Selective, Location-Specific Binding in the Gastrointestinal Tract” (ACS Nano, 2025)
